Assay results from ChEMBL document CHEMBL1949550, “Pre-microRNA binding aminoglycosides and antitumor drugs as inhibitors of Dicer catalyzed microRNA processing” (Bioorg Med Chem Lett, 2012).
Calls of active or inactive are those of the source. No cut-off for these calls is given here. *1 amine or outer side, *2 acyl side, *3 side chain or, on linkers, in order; H or OH if unused. Where a SMILES comes first, the peptide text is derived from it. Bridges are numbered along the chain shown (N, C = ends). Roman numbers before positions name the chains, in order. [ ]: non-standard residue; d: D form. Actinocin(9to1) = Cc1c2oc3c(C)ccc(C(=O)[*:1])c3nc-2c(C(=O)[*:2])c(N)c1=O; NMeV = CN[C@H](C(=O)O)C(C)C; Sar = CNCC(=O)O

Assays:
Nucleic Acid [1] = assay: Displacement of ethidium bromide from human pre-hsa-mir-155 miRNA after 30 mins; assay type: nucleic-acid assay
[2] = Aqueous solubility of the compound; assay type: physicochemical; conditions: buffer
Nucleic Acid [3] = assay: Binding affinity to human pre-hsa-mir-155 miRNA assessed as inhibition of dicer-catalysed (33P)-labelled pre-miRNA processing at 1 mM after 1 hr by PAGE analysis; assay type: nucleic-acid assay; conditions: for residual activity: values are per cent of control
Nucleic Acid [4] = assay: Binding affinity to human pre-hsa-mir-155 miRNA assessed as melting temperature at 12 uM (reference value: 48 degC); assay type: nucleic-acid assay
Nucleic Acid [5] = assay: Binding affinity to human pre-hsa-mir-155 miRNA assessed as increase in melting temperature; assay type: nucleic-acid assay
Nucleic Acid [6] = assay: Binding affinity to human pre-hsa-mir-155 miRNA assessed as melting temperature at 10 uM (reference value: 48 degC); assay type: nucleic-acid assay
Nucleic Acid [7] = assay: Binding affinity to human pre-hsa-mir-155 miRNA assessed as melting temperature at 2 uM (reference value: 48 degC); assay type: nucleic-acid assay
Nucleic Acid [8] = assay: Binding affinity to human pre-hsa-mir-155 miRNA assessed as melting temperature at 112 uM (reference value: 48 degC); assay type: nucleic-acid assay
Nucleic Acid [9] = assay: Binding affinity to human pre-hsa-mir-155 miRNA assessed as increase in fluorescence after 30 mins by fluorimetry; assay type: nucleic-acid assay

Which results are given for `Cc1c2c(c(O)c3c(O)cccc13)C(=O)[C@]1(O)C(=O)C(C(N)=O)=C(O)[C@H](N(C)C)[C@@H]1C2.Cl`?
Activity (Nucleic Acid [1]): inactive; solubility [2]: soluble

For `COc1cccc2c1C(=O)c1c(O)c3c(c(O)c1C2=O)C[C@@](O)(C(=O)CO)C[C@@H]3O[C@H]1C[C@H](N)[C@H](O)[C@H](C)O1`, which residual activity (Nucleic Acid [3]) is on record?
The residual activity was 83%.

With BLEOMYCIN as the compound, how does the inhibition (Nucleic Acid [3]) read?
The inhibition was “inactive”.

For `NC[C@@H]1O[C@H](O[C@H]2[C@@H](O)[C@H](O[C@@H]3[C@@H](O)[C@H](N)C[C@H](N)[C@H]3O[C@H]3O[C@H](CN)[C@@H](O)[C@H](O)[C@H]3N)O[C@@H]2CO)[C@H](N)[C@@H](O)[C@@H]1O` (stereo in doubt; form 1), which residual activity (Nucleic Acid [3]) is on record?
The residual activity was 10%.

What about the Tm (Nucleic Acid [4]) of the same compound?
The Tm was greater than 70 °C.

What about the Activity (Nucleic Acid [5]) of the same compound?
Its Activity is “Dose-dependent effect”.

What about the Tm (Nucleic Acid [6]) of the same compound?
Its Tm is greater than 70 °C.

What about the Tm (Nucleic Acid [7]) of the same compound?
Its Tm is 50 °C.

With `CN[C@H](CC(C)C)C(=O)N[C@H]1C(=O)N[C@@H](CC(N)=O)C(=O)N[C@H]2C(=O)N[C@H]3C(=O)N[C@H](C(=O)N[C@H](C(=O)O)c4cc(O)cc(O)c4-c4cc3ccc4O)[C@H](O)c3ccc(c(Cl)c3)Oc3cc2cc(c3O[C@@H]2O[C@H](CO)[C@@H](O)[C@H](O)[C@H]2O[C@H]2C[C@](C)(N)[C@H](O)[C@H](C)O2)Oc2ccc(cc2Cl)[C@H]1O` as the compound, how does the inhibition (Nucleic Acid [3]) read?
The inhibition was “inactive”.

With `NC[C@H]1O[C@H](O[C@H]2[C@H](O)[C@@H](O[C@H]3O[C@H](CO)[C@@H](O)[C@H](N)[C@H]3O)[C@H](N)C[C@@H]2N)[C@H](N)[C@@H](O)[C@@H]1O` [BEKANAMYCIN] as the compound, how does the Kd (Nucleic Acid [1]) read?
The Kd was 6 µM.

Which Activity (Nucleic Acid [1]) does the source give for `CN(C)[C@H]1C(O)=C(C(N)=O)C(=O)[C@@]2(O)C(O)=C3C(=O)c4c(O)cccc4[C@@](C)(O)[C@H]3C[C@@H]12` here?
Its Activity is “inactive”.

For `N=C(N)c1ccc(-c2cc3ccc(C(=N)N)cc3[nH]2)cc1`, which residual activity (Nucleic Acid [3]) is on record?
Its residual activity is 100%.

Which Activity (Nucleic Acid [1]) does the source give for `CN(C)[C@H]1C(O)=C(C(N)=O)C(=O)[C@@]2(O)C(O)=C3C(=O)c4c(O)ccc(Cl)c4[C@@](C)(O)[C@H]3C[C@@H]12` here?
Its Activity is “inactive”.

With `NCC[C@H](O)C(=O)N[C@@H]1C[C@H](N)[C@@H](O[C@H]2O[C@H](CN)[C@@H](O)[C@H](O)[C@H]2O)[C@H](O)[C@H]1O[C@H]1O[C@H](CO)[C@@H](O)[C@H](N)[C@H]1O` [AMIKACIN] as the compound, how does the Kd (Nucleic Acid [1]) read?
Its Kd is greater than 100 µM.

For GENTAMICIN, which Kd (Nucleic Acid [1]) is on record?
Its Kd is greater than 100 µM.

For `CN[C@@H]1[C@@H](O[C@H]2O[C@H](CO)[C@@H](N)[C@H](O)[C@H]2O)OC2C[C@@H](N)[C@@H](O[C@H]3[C@H](O)[C@@H](O)[C@H](N)C[C@@H]3N)OC2[C@@H]1O` (stereo partly specified), which residual activity (Nucleic Acid [3]) is on record?
The residual activity was 10%.

For `NC[C@@H]1O[C@@H](O[C@H]2[C@H](O)[C@@H](O[C@H]3O[C@H](CO)[C@@H](O)[C@H](N)[C@H]3O)[C@H](N)C[C@@H]2N)[C@@H](O)[C@H](O)[C@H]1O` [KANAMYCIN A], which Kd (Nucleic Acid [1]) is on record?
The Kd was 141 µM.

What about the Tm (Nucleic Acid [4]) of the same compound?
The Tm was 64 °C.

And the Activity (Nucleic Acid [5])?
Its Activity is “Dose-dependent effect”.

What about the Tm (Nucleic Acid [8]) of the same compound?
The Tm was greater than 70 °C.

And the Tm (Nucleic Acid [7])?
Its Tm is 55 °C.

With `NC[C@@H]1O[C@H](O[C@H]2[C@@H](O)[C@H](O[C@@H]3[C@@H](O)[C@H](N)C[C@H](N)[C@H]3O[C@H]3O[C@H](CN)[C@@H](O)[C@H](O)[C@H]3N)O[C@@H]2CO)[C@H](N)[C@@H](O)[C@@H]1O` (stereo in doubt; form 2) [FRAMYCETIN] as the compound, how does the Kd (Nucleic Acid [1]) read?
Its Kd is 11 µM.

For `CCN[C@@H]1C[C@H](N)[C@@H](O[C@H]2OC(CN)=CC[C@H]2N)[C@H](O)[C@H]1O[C@H]1OC[C@](C)(O)[C@H](NC)[C@H]1O` [NETILMICIN], which Kd (Nucleic Acid [1]) is on record?
The Kd was greater than 100 µM.

Which Kd (Nucleic Acid [9]) does the source give for `CC[n+]1c(-c2ccccc2)c2cc(N)ccc2c2ccc(N)cc21` [HOMIDIUM BROMIDE] here?
Its Kd is 5 µM.

Which results are given for `CN1CCN(c2ccc3[nH]c(-c4ccc5[nH]c(-c6ccc(O)cc6)nc5c4)nc3c2)CC1`?
Kd (Nucleic Acid [9]): 14 µM; residual activity (Nucleic Acid [3]): 40%

With `C=C1c2cccc(O)c2C(=O)C2=C(O)[C@]3(O)C(=O)C(C(N)=O)=C(O)[C@@H](N(C)C)[C@@H]3[C@@H](O)[C@H]12.Cl` [METHACYCLINE HYDROCHLORIDE] as the compound, how does the Activity (Nucleic Acid [1]) read?
Its Activity is “inactive”.

What about the solubility [2] of the same compound?
Its solubility is “soluble”.

For `NC[C@@H]1O[C@H](O[C@H]2[C@@H](O)[C@H](O[C@@H]3[C@@H](O)[C@H](N)C[C@H](N)[C@H]3O[C@H]3O[C@H](CN)[C@@H](O)[C@H](O)[C@H]3N)O[C@@H]2CO)[C@H](N)[C@@H](O)[C@@H]1O` (stereo in doubt; form 2), which residual activity (Nucleic Acid [3]) is on record?
The residual activity was 10%.

And the Tm (Nucleic Acid [4])?
Its Tm is greater than 70 °C.

And the Tm (Nucleic Acid [7])?
Its Tm is 48 °C.

For `COc1ccc2cc3[n+](cc2c1OC)CCc1cc2c(cc1-3)OCO2`, which inhibition (Nucleic Acid [3]) is on record?
The inhibition was “inactive”.

With `NC[C@@H]1O[C@H](O[C@H]2[C@@H](O)[C@H](O[C@@H]3[C@@H](O)[C@H](N)C[C@H](N)[C@H]3O[C@H]3O[C@H](CN)[C@@H](O)[C@H](O)[C@H]3N)O[C@@H]2CO)[C@H](N)[C@@H](O)[C@@H]1O` (stereo in doubt; form 1) [FRAMYCETIN] as the compound, how does the Kd (Nucleic Acid [1]) read?
The Kd was 6 µM.

For `CN(C)[C@@H]1C(O)=C(C(N)=O)C(=O)[C@@]2(O)C(O)=C3C(=O)c4c(O)ccc(Cl)c4[C@@H](O)[C@H]3C[C@@H]12.Cl` [DEMECLOCYCLINE HYDROCHLORIDE], which Activity (Nucleic Acid [1]) is on record?
The Activity was “inactive”.

And the solubility [2]?
Its solubility is “soluble”.

Which Activity (Nucleic Acid [1]) does the source give for `CN(C)c1ccc(O)c2c1C[C@H]1C[C@H]3[C@H](N(C)C)C(O)=C(C(N)=O)C(=O)[C@@]3(O)C(O)=C1C2=O` here?
Its Activity is “inactive”.

With `Nc1ccc2cc3ccc(N)cc3nc2c1` as the compound, how does the residual activity (Nucleic Acid [3]) read?
Its residual activity is 93%.

Which Kd (Nucleic Acid [1]) does the source give for `CN[C@@H]1[C@H](O[C@H]2[C@H](O[C@H]3[C@H](O)[C@@H](O)[C@H](NC(=N)N)[C@@H](O)[C@@H]3NC(=N)N)O[C@@H](C)[C@]2(O)CO)O[C@@H](CO)[C@H](O)[C@H]1O` [DIHYDROSTREPTOMYCIN] here?
Its Kd is greater than 100 µM.

With `COc1cccc2c1C(=O)c1c(O)c3c(c(O)c1C2=O)C[C@@](O)(C(C)=O)C[C@@H]3O[C@H]1C[C@H](N)[C@H](O)[C@H](C)O1` as the compound, how does the residual activity (Nucleic Acid [3]) read?
The residual activity was 19%.

For `Cc1c2c(c(O)c3c(O)ccc(Cl)c13)C(=O)[C@]1(O)C(=O)C(C(N)=O)=C(O)[C@H](N(C)C)[C@@H]1C2.Cl`, which Activity (Nucleic Acid [1]) is on record?
Its Activity is “inactive”.

And the solubility [2]?
The solubility was “soluble”.

With `Cc1c2oc3c(C)ccc(C(=O)N[C@@H]4C(=O)N[C@H](C(C)C)C(=O)N5CCC[C@H]5C(=O)N(C)CC(=O)N(C)[C@@H](C(C)C)C(=O)O[C@@H]4C)c3nc-2c(C(=O)N[C@@H]2C(=O)N[C@H](C(C)C)C(=O)N3CCC[C@H]3C(=O)N(C)CC(=O)N(C)[C@@H](C(C)C)C(=O)O[C@@H]2C)c(N)c1=O` (I: T[dV]P[Sar][NMeV] / II: T[dV]P[Sar][NMeV]; ester I:1-I:C, II:1-II:C; linker I:N-II:N via Actinocin(9to1)) as the compound, how does the inhibition (Nucleic Acid [3]) read?
Its inhibition is “inactive”.

Which Activity (Nucleic Acid [1]) does the source give for `CCO.C[C@H]1c2cccc(O)c2C(=O)C2=C(O)[C@]3(O)C(=O)C(C(N)=O)=C(O)[C@@H](N(C)C)[C@@H]3[C@@H](O)[C@@H]21.Cl.O` here?
Its Activity is “inactive”.

What about the solubility [2] of the same compound?
Its solubility is “soluble”.

For `CN(C)[C@@H]1C(O)=C(C(N)=O)C(=O)[C@@]2(O)C(O)=C3C(=O)c4c(O)cccc4[C@@](C)(O)[C@H]3C[C@@H]12`, which Activity (Nucleic Acid [1]) is on record?
The Activity was “inactive”.

Which inhibition (Nucleic Acid [3]) does the source give for `CCN(CC)CCCC(C)Nc1c2ccc(Cl)cc2nc2ccc(OC)cc12` (stereo unspecified) here?
Its inhibition is “inactive”.

For `Cc1c2c(c(O)c3c(O)cccc13)C(=O)[C@]1(O)C(=O)C(C(N)=O)=C(O)[C@@H](N(C)C)[C@@H]1C2.Cl` [ANHYDROTETRACYCLINE HYDROCHLORIDE], which Activity (Nucleic Acid [1]) is on record?
Its Activity is “inactive”.

What about the solubility [2] of the same compound?
Its solubility is “soluble”.

Which Kd (Nucleic Acid [1]) does the source give for `NC[C@H]1O[C@H](O[C@H]2[C@H](O)[C@@H](O[C@H]3O[C@H](CO)[C@@H](O)[C@H](N)[C@H]3O)[C@H](N)C[C@@H]2N)[C@H](N)C[C@@H]1O` [TOBRAMYCIN] here?
Its Kd is greater than 100 µM.

Which Kd (Nucleic Acid [1]) does the source give for `CN[C@@H]1[C@H](O)[C@H](NC)[C@H]2O[C@@]3(O)C(=O)C[C@@H](C)O[C@H]3O[C@@H]2[C@H]1O` [SPECTINOMYCIN] here?
Its Kd is greater than 100 µM.
